Data published in patent publication US20070021434A1, “NON-NUCLEOSIDE ANTI-HEPACIVIRUS AGENTS AND USES THEREOF” (Migenix Inc., priority 2005, published 2007).

Target: HCV RdRp (NS5B) (UniProt P26663)
Assay type: biochemical, hepatitis C virus

Chain of HCV RdRp (NS5B) (P26663 whole entry, looked up): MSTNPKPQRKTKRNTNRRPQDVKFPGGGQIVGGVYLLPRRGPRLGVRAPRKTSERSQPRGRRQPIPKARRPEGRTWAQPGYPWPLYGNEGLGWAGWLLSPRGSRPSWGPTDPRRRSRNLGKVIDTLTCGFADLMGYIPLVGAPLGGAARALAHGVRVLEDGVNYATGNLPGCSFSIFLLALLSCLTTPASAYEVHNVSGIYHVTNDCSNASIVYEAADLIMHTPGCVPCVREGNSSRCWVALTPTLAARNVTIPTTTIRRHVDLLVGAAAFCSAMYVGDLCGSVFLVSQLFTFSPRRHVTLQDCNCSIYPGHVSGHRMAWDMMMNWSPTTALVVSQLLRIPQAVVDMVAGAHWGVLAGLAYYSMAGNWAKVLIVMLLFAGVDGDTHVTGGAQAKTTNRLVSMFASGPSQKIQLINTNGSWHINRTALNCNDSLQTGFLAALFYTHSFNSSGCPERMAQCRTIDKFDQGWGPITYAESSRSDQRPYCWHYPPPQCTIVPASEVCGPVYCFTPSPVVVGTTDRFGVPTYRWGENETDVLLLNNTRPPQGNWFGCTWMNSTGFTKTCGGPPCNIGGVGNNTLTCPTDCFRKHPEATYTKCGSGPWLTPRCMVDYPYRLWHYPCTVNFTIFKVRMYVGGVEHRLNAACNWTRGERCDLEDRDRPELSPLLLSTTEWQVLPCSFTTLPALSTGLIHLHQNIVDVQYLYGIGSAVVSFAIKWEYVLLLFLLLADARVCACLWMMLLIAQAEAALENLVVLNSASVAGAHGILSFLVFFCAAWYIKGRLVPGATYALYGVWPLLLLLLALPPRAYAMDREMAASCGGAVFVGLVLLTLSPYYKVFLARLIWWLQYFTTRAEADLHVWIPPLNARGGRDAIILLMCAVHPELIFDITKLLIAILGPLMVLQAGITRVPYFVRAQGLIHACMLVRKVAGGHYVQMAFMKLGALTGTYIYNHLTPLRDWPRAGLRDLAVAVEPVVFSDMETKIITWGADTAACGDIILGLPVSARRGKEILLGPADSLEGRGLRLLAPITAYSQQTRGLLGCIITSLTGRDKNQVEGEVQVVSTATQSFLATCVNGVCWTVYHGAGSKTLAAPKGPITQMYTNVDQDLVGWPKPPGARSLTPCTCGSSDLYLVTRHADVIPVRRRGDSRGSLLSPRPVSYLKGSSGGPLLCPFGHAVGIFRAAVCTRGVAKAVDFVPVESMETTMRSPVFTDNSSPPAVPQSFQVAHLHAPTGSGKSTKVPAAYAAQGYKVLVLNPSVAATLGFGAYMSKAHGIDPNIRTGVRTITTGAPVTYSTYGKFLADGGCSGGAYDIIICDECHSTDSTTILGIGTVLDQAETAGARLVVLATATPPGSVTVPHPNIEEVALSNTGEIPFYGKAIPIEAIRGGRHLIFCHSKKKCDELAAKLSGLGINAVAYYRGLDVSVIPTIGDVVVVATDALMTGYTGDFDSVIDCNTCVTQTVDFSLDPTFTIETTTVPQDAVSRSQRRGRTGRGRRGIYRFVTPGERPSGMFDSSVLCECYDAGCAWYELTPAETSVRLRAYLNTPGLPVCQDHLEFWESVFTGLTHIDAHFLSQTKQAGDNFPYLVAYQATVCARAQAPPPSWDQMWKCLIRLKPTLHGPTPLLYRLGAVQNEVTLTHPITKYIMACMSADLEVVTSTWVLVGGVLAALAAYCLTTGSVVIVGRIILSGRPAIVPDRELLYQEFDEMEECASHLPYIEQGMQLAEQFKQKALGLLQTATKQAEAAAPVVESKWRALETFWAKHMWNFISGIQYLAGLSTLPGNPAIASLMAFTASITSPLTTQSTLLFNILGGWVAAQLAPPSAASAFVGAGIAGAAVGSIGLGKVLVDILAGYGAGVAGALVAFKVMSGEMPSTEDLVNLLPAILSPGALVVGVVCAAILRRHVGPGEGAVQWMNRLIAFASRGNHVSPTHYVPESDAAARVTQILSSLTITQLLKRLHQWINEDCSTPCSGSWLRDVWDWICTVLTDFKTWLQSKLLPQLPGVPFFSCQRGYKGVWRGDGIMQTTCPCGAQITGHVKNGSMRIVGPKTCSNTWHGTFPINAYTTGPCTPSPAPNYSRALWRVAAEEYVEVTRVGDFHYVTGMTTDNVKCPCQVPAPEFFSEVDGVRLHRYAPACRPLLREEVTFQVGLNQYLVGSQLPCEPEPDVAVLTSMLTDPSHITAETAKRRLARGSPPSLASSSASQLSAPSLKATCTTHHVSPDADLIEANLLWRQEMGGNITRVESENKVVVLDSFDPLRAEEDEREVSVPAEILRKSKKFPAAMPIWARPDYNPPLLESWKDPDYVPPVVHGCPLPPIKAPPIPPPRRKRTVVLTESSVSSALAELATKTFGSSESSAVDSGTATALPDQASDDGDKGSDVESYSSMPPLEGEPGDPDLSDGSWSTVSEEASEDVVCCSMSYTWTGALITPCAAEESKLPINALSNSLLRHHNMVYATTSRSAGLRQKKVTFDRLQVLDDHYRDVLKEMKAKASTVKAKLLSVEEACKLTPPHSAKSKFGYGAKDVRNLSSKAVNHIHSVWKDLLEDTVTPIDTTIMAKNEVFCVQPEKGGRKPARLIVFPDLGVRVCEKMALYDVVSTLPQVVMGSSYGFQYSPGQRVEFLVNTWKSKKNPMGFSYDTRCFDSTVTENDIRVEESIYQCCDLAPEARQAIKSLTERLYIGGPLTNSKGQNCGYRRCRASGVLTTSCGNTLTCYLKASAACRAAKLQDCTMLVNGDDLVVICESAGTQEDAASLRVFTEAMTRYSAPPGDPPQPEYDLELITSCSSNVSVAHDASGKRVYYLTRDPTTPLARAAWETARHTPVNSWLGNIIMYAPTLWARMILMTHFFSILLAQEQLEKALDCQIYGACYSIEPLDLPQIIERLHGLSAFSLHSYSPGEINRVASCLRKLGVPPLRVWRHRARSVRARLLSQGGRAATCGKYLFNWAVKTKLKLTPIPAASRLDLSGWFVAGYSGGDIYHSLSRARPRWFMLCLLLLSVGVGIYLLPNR

| Structure (SMILES) | IC50 [µM] |
| --- | --- |
| COc1cc2ccccc2cc1C(=O)NC(CCCCN)C(=O)Nc1ccc(C)cc1 [Compound 65, (S)-3-METHOXY-NAPHTHALENE-2-CARBOXYLIC ACID (5-AMINO-1-P-TOLYLCARBAMOYL-PENTYL)-AMIDE] | > 50 |
| NCCCC[C@H](NC(=O)OCC1c2ccccc2-c2ccccc21)C(=O)Nc1cccc(C(F)(F)F)c1 [Compound 218, (S)-[5-AMINO-1-(3-TRIFLUOROMETHYL-PHENYLCARBAMOYL)-PENTYL]-CARBAMIC ACID 9H-FLUOREN-9-YLMETHYL ESTER] | > 50 |
| NCCCCCCNC(=O)C(Cc1ccccc1)NC(=O)Nc1ccc(OCc2ccccc2)cc1 [Compound 263, (S)—NR-(6-AMINO-HEXYL)-2-13-(4-BENZYLOXY-PHENYL)-UREIDO]-3-PHENYL-PROPIONAMIDE] | 10 to 50 |
| Cc1ccc(NC(=O)[C@H](CCCCN)NC(=O)CNCc2ccccc2Cl)cc1 [Compound 347, (S)-6-AMINO-2-[2-(2-CHLORO-BENZYLAMINO)-ACETYLAMINO]-HEXANOIC ACID P-TOLYLAMIDE] | > 50 |
| Cc1ccc(NC(=O)[C@H](CCCCN)NS(=O)(=O)c2ccc(Cl)cc2Cl)cc1 [Compound 393, (S)-6-AMINO-2-(2,4-DICHLORO-BENZENESULFONYLAMINO)-HEXANOIC ACID P-TOLYLAMIDE] | > 50 |
| Cc1ccc(NC(=O)C(CCCCN)NC(=O)CNCCc2c[nH]c3ccccc23)cc1 [Compound 335, (S)-6-AMINO-2-{2-[2-(1H-INDOL-3-YL)-ETHYLAMINO]-ACETYLAMINO}-HEXANOIC ACID P-TOLYLAMIDE] | > 50 |
| CC(=O)c1cccc(NC(=O)[C@H](CCCCN)NC(=O)OCC2c3ccccc3-c3ccccc32)c1 [Compound 219, (S)-[1-(3-ACETYL-PHENYLCARBAMOYL)-5-AMINO-PENTYL]-CARBAMIC ACID 9H-FLUOREN-9-YLMETHYL ESTER] | > 50 |
| Cc1ccc(NC(=O)[C@H](CCCCN)NC(=O)COc2ccccc2)cc1 [Compound 328, (S)-^6-AMINO-^2-(^2-PHENOXY-ACETYLAMINO)-HEXANOIC ACID P-TOLYLAMIDE] | > 50 |
| Cc1ccc(NC(=O)C(CCCCN)NC(=O)CNc2ccc(C(F)(F)F)cc2)cc1 [Compound 365, (S)-6-AMINO-2-[2-(4-TRIFLUOROMETHYL-PHENYLAMINO)-ACETYLAMINO]-HEXANOIC ACID P-TOLYLAMIDE] | > 50 |
| Cc1ccc(NC(=O)C(CCCN)NC(=O)OCC2c3ccccc3-c3ccccc32)cc1 [Compound 101, (S)-(4-AMINO-1-P-TOLYLCARBAMOYL-BUTYL)-CARBAMIC ACID 9H-FLUOREN-9-YLMETHYL ESTER] | > 50 |
| Cc1ccc(NC(=O)C(CCCCN)NC(=O)c2ccc3ccccc3c2)cc1 [Compound 51, (S)-NAPHTHALENE-2-CARBOXYLIC ACID (5-AMINO-1-P-TOLYLCARBAMOYL-PENTYL)-AMIDE] | > 50 |
| NCCCC[C@H](NC(=O)Nc1ccc(OCc2ccccc2)cc1)C(=O)Nc1nc2ccccc2s1 [Compound 303, (S)-6-AMINO-2-[3-(4-BENZYLOXY-PHENYL)-UREIDO]-HEXANOIC ACID BENZOTHIAZOL-2-YLAMIDE] | > 50 |
| Cc1ccc(NC(=O)CN(CCCCN)C(=O)OCC2c3ccccc3-c3ccccc32)cc1 [Compound 293, (4-AMINO-BUTYL)-(P-TOLYLCARBAMOYL-METHYL)-CARBAMIC ACID 9H-FLUOREN-9-YLMETHYL ESTER] | < 10 |
| Cc1ccc(NC(=O)C(Cc2cccnc2)NC(=O)OCC2c3ccccc3-c3ccccc32)cc1 [Compound 385, (S)-(2-PYRIDIN-3-YL-1-P-TOLYLCARBAMOYL-ETHYL)-CARBAMIC ACID 9H-FLUOREN-9-YLMETHYL ESTER] | > 50 |
| Cc1ccc(NC(=O)C(CCCCN)NC(=O)OCC2c3ccccc3-c3ccccc32)cc1 [Compound 36, (R)-(5-AMINO-1-P-TOLYLCARBAMOYL-PENTYL)-CARBAMIC ACID 9H-FLUOREN-9-YLMETHYL ESTER] | 10 to 50 |
